Data published in ChEMBL document CHEMBL1151621, “Correlation of the anticholinesterase and molluscicidal activity of the latex of Euphorbia royleana on the snail Lymnaea acuminata” (1984).

Columns and labels:
Lymnaea [1] = assay: Inhibition of acetylcholinesterase from nerve tissue of Lymnaea acuminata at 0.23 ug w/v relative to control; parameters: scale not given: the % may be the effect or the level left
Lymnaea [2] = assay: In vivo inhibition of acetylcholinesterase from nerve tissue of Lymnaea acuminata at 14 mg/L relative to control; format: functional; parameters: scale not given: the % may be the effect or the level left
Lymnaea [3] = assay: Inhibition of acetylcholinesterase from nerve tissue of Lymnaea acuminata at 2 ug w/v relative to control; parameters: scale not given: the % may be the effect or the level left
Lymnaea [4] = assay: Inhibition of acetylcholinesterase from nerve tissue of Lymnaea acuminata at 0.75 ug w/v relative to control; parameters: scale not given: the % may be the effect or the level left
Lymnaea [5] = assay: In vivo inhibition of acetylcholinesterase from nerve tissue of Lymnaea acuminata at 27 mg/L relative to control; format: functional; parameters: scale not given: the % may be the effect or the level left
Lymnaea [6] = assay: Inhibition of acetylcholinesterase from nerve tissue of Lymnaea acuminata at 1 ug w/v relative to control; parameters: scale not given: the % may be the effect or the level left
Lymnaea [7] = assay: In vivo inhibition of acetylcholinesterase from nerve tissue of Lymnaea acuminata at 2.5 mg/L relative to control; format: functional; parameters: scale not given: the % may be the effect or the level left
Lymnaea [8] = assay: Molluscicidal activity against Lymnaea acuminata within 24 hrs; format: functional
Lymnaea [9] = assay: Inhibition of acetylcholinesterase from nerve tissue of Lymnaea acuminata at 0.5 ug w/v relative to control; parameters: scale not given: the % may be the effect or the level left
Lymnaea [10] = assay: In vivo inhibition of acetylcholinesterase from nerve tissue of Lymnaea acuminata at 30 mg/l relative to control; format: functional; parameters: scale not given: the % may be the effect or the level left

CNC(=O)Oc1ccc2c(c1)[C@]1(C)CCN(C)[C@@H]1N2C
Activity (Lymnaea [1]): 13%

CNC(=O)Oc1cccc2ccccc12 [CARBARIL]
Activity (Lymnaea [2]): 73% | Activity (Lymnaea [3]): 67%

COP(=S)(OC)SCC(=O)N(C)C=O [FORMOTHION]
Activity (Lymnaea [4]): 47% | Activity (Lymnaea [5]): 79%

CNC(=O)Oc1cc(C)c(N(C)C)c(C)c1 [MEXACARBATE]
Activity (Lymnaea [6]): 39% | Activity (Lymnaea [7]): 53%

O=C(Nc1ccc([N+](=O)[O-])cc1Cl)c1cc(Cl)ccc1O [NICLOSAMIDE]
Activity (Lymnaea [8]): 63%

CCOP(=S)(OCC)SCSCC [PHORATE]
Activity (Lymnaea [9]): 42% | Activity (Lymnaea [10]): 67%
